ChEMBL document CHEMBL4402526, “Design and Synthesis of Fungal-Selective Resorcylate Aminopyrazole Hsp90 Inhibitors” (J Med Chem, 2020)
The source made the active and inactive calls.

Columns and labels:
[1] = test system: Candida albicans; assay: Antifungal activity against Candida albicans clinical isolate 2 assessed as fungal growth inhibition at <= […] uM measured after 48 hrs by resazurin assay; type: functional, organism-based
[2] = test system: Cryptococcus neoformans; assay: Antifungal activity against Cryptococcus neoformans H99 assessed as fungal growth inhibition at <= […] uM measured after 48 hrs by resazurin assay; type: functional, organism-based
[3] = test system: Candida albicans; assay: Fungicidal activity against Candida albicans clinical isolate 2 incubated for 48 hrs in presence of fluconazole followed by replating on YDP agar plate and measured after 24 hrs; type: functional, organism-based
[4] = Microsomal stability in CD-1 mouse liver microsomes assessed as parent compound remaining at 1 uM measured at 60 mins by LC-MS/MS analysis; type: ADME, Microsome; details: read-out: Stability
[5] = Half life in CD-1 mouse liver microsomes at 1 uM measured up to 120 mins by LC-MS/MS analysis
[6] = test system: Candida albicans; assay: Antifungal activity against Candida albicans clinical isolate 2 assessed as fungal growth inhibition measured after 48 hrs in presence of fluconazole by resazurin assay; type: functional; details: clinical isolate 2, 48 h
[7] = Displacement of Cy3-labeled geldanamycin from HSP90 in Candida albicans clinical isolate 2 cell lysate measured after […] by fluorescence polarization assay; type: subcellular
[8] = test system: Cryptococcus neoformans; assay: Antifungal activity against Cryptococcus neoformans H99 assessed as fungal growth inhibition at < […] uM measured after 48 hrs by resazurin assay; type: functional, organism-based
[9] = Selectivity index, ratio of kd for binding affinity to recombinant human Hsp90 NBD expressed in Escherichia coli Rosetta2 to Kd for binding affinity to recombinant Candida albicans clinical isolate 2 HSP90 NBD (E7 to K218 residues) expressed in Escherichia coli Rosetta2

Row | SMILES | Activity [1] | Activity [2] | also measured
1 | COc1ccc(Cn2nc(-c3ccccc3)cc2Nc2cc(O)cc(O)c2C(=O)N2Cc3ccccc3C2)cc1 | Active | Active | Activity [3]: Active
2 | CC(C)c1ccc(Cn2nccc2Nc2cc(O)cc(O)c2C(=O)N2Cc3ccccc3C2)cc1 | Active | Active | remaining at 1 h, 1 µM [4]: 1.8%; half-life at 2 h, 1 µM [5]: 3.1 min
3 | Cc1cccc(-c2cc(Nc3cc(O)cc(O)c3C(=O)N3Cc4cn[nH]c4C3)n(C)n2)c1 | Active | Active | remaining at 1 h, 1 µM [4]: 1.8%; half-life at 2 h, 1 µM [5]: 9.38 min
4 | Cn1nc(-c2ccc(OC(F)(F)F)cc2)cc1Nc1cc(O)cc(O)c1C(=O)N1Cc2ccccc2C1 | Active | Active | MIC [6]: 12.5 µM
5 | COc1cccc(-c2cc(Nc3cc(O)cc(O)c3C(=O)N3Cc4cccnc4C3)n(C)n2)c1 | Active | Active | remaining at 1 h, 1 µM [4]: 0%; half-life at 2 h, 1 µM [5]: 3.44 min
6 | COc1ccc(Cn2nc(C)cc2Nc2cc(O)cc(O)c2C(=O)N(C)CC2CC2)cc1 | Active | Active | EC50 [7]: > 9 µM
7 | Cn1nc(-c2ccc(OC(F)(F)F)cc2)cc1Nc1cc(O)cc(O)c1C(=O)N1Cc2cccnc2C1 | Active | Active | remaining at 1 h, 1 µM [4]: 3.9%
8 | COc1cccc(-c2cc(Nc3cc(O)cc(O)c3C(=O)N3Cc4ccccc4C3)n(C)n2)c1 | Active | Active | remaining at 1 h, 1 µM [4]: 0%; half-life at 2 h, 1 µM [5]: 3.15 min
9 | COc1ccc(Cn2nc(C)cc2Nc2cc(O)cc(O)c2C(=O)N(C)Cc2ccccc2)cc1 | Active | Active | EC50 [7]: > 6 µM
10 | CCN(CC)C(=O)c1c(O)cc(O)cc1Nc1cc(-c2ccccc2)nn1Cc1ccc(OC)cc1 | Active | Active | EC50 [7]: > 10 µM
11 | Cc1ccccc1-c1cc(Nc2cc(O)cc(O)c2C(=O)N2Cc3ccccc3C2)n(C)n1 | Active | Active | Activity [8]: Active
12 | COc1cccc(-c2cc(Nc3cc(O)cc(O)c3C(=O)N3Cc4cn[nH]c4C3)n(C)n2)c1 | Active | Active | remaining at 1 h, 1 µM [4]: 7%
13 | COc1ccc(Cn2nc(C)cc2Nc2cc(O)cc(O)c2C(=O)N2Cc3cccc(F)c3C2)cc1 | Active | Active | –
14 | O=C(c1c(O)cc(O)cc1Nc1ccnn1CC1CCCCC1)N1Cc2cccnc2C1 | Active | Active | –
15 | COc1ccc(Cn2nc(-c3ccccc3)cc2Nc2cc(O)cc(O)c2C(=O)N(C)CC2CC2)cc1 | Active | Active | EC50 [7]: > 9 µM
16 | COc1ccc(Cn2ncc(C(C)C)c2Nc2cc(O)cc(O)c2C(=O)N2Cc3ccccc3C2)cc1 | Active | Active | –
17 | Cc1cccc(-c2cc(Nc3cc(O)cc(O)c3C(=O)N3Cc4cccnc4C3)n(C)n2)c1 | Active | Active | –
18 | COc1ccc(Cn2nc(-c3ccccc3)cc2Nc2cc(O)cc(O)c2C(=O)N2Cc3ccc(NC4CCN(C)CC4)cc3C2)cc1 | Active | Active | –
19 | Cc1ccc(-c2cc(Nc3cc(O)cc(O)c3C(=O)N3Cc4cn[nH]c4C3)n(C)n2)cc1 | Active | Active | –
20 | Cn1nc(C2CCCCC2)cc1Nc1cc(O)cc(O)c1C(=O)N1Cc2cccnc2C1 | Active | Active | –
21 | Cn1nc(-c2ccc(C(C)(C)C)cc2)cc1Nc1cc(O)cc(O)c1C(=O)N1Cc2cccnc2C1 | Active | Active | –
22 | COc1ccc(Cn2nc(C3CC3)cc2Nc2cc(O)cc(O)c2C(=O)N2Cc3cccnc3C2)cc1 | Active | Active | –
23 | O=C(c1c(O)cc(O)cc1Nc1ccnn1-c1ccccc1)N1Cc2cccnc2C1 | Active | Active | –

Row | SMILES | Activity [1] | Activity [2] | also measured
24 | COc1ccc(Cn2nc(C(C)C)cc2Nc2cc(O)cc(O)c2C(=O)N2Cc3cccnc3C2)cc1 | Active | Active | –
25 | COc1ccc(Cn2nc(C(C)(C)C)cc2Nc2cc(O)cc(O)c2C(=O)N2Cc3ccccc3C2)cc1 | Active | Active | –
26 | Cn1nc(-c2ccc(OC(F)(F)F)cc2)cc1Nc1cc(O)cc(O)c1C(=O)N1Cc2cn[nH]c2C1 | Active | Active | remaining at 1 h, 1 µM [4]: 20.6%
27 | Cn1nc(-c2ccc(C(C)(C)C)cc2)cc1Nc1cc(O)cc(O)c1C(=O)N1Cc2cn[nH]c2C1 | Active | Active | remaining at 1 h, 1 µM [4]: 0.5%; half-life at 2 h, 1 µM [5]: 6.44 min
28 | COc1ccc(Cn2ncc(C)c2Nc2cc(O)cc(O)c2C(=O)N2Cc3ccccc3C2)cc1 | Active | Active | Activity [3]: Active
29 | Cn1nc(C2CCCCC2)cc1Nc1cc(O)cc(O)c1C(=O)N1Cc2cn[nH]c2C1 | Active | Active | remaining at 1 h, 1 µM [4]: 0.06%; half-life at 2 h, 1 µM [5]: 2.74 min
30 | COc1ccc(Cn2nc(C(C)C)cc2Nc2cc(O)cc(O)c2C(=O)N2Cc3cn[nH]c3C2)cc1 | Active | Active | –
31 | COc1ccc(-c2cc(Nc3cc(O)cc(O)c3C(=O)N3Cc4ccccc4C3)n(C)n2)cc1 | Active | Active | –
32 | Cn1nccc1Nc1cc(O)cc(O)c1C(=O)N1Cc2cccnc2C1 | Active | Active | –
33 | Cc1ccc(-c2cc(Nc3cc(O)cc(O)c3C(=O)N3Cc4ccccc4C3)n(C)n2)cc1 | Active | Active | –
34 | O=C(c1c(O)cc(O)cc1Nc1ccnn1-c1ccccc1)N1Cc2cn[nH]c2C1 | Active | Active | –
35 | O=C(c1c(O)cc(O)cc1Nc1ccnn1C1CCCCC1)N1Cc2ccccc2C1 | Active | Active | –
36 | Cn1nc(C2CCCCC2)cc1Nc1cc(O)cc(O)c1C(=O)N1Cc2ccccc2C1 | Active | Active | –
37 | Cn1nc(-c2ccc(C(F)(F)F)cc2)cc1Nc1cc(O)cc(O)c1C(=O)N1Cc2ccccc2C1 | Active | Active | –
38 | COc1ccc(CO\N=C2/C=C/C=C\[C@H]3O[C@@H]3C[C@@H](C)OC(=O)c3c(O)cc(O)cc3C2)cc1 | – | – | Selectivity Index [9]: > 25
39 | COc1ccc(Cn2nc(-c3ccccc3)cc2Nc2cc(O)cc(O)c2C(=O)N2Cc3ccc(F)cc3C2)cc1 | Active | Active | –
40 | Cn1nc(-c2ccccc2)cc1Nc1cc(O)cc(O)c1C(=O)N1Cc2cn[nH]c2C1 | Active | Active | –
41 | CC(C)c1ccc(Cn2nccc2Nc2cc(O)cc(O)c2C(=O)N2Cc3cn[nH]c3C2)cc1 | Active | Active | –
42 | CC(C)c1cc(Nc2cc(O)cc(O)c2C(=O)N2Cc3cccnc3C2)n(C)n1 | Active | Active | –
43 | COc1ccc(Cn2nc(C)cc2Nc2cc(O)cc(O)c2C(=O)N2Cc3ccc(F)cc3C2)cc1 | Active | Active | –
44 | O=C(c1c(O)cc(O)cc1Nc1ccnn1Cc1ccc(C(F)(F)F)cc1)N1Cc2cccnc2C1 | Active | Active | –
45 | Cc1cc(Nc2cc(O)cc(O)c2C(=O)N2Cc3ccccc3C2)n(Cc2ccccc2Cl)n1 | Active | Active | Activity [3]: Active
